According to patent publication US9371307B2, “Serine protease inhibitors” (THE JOHNS HOPKINS UNIVERSITY, priority 2011, dated 2016):
Where two headings read alike, the source gives them in different places.

Assays:
Assay type in all cases: biochemical
Tryptase = Tryptase (Homo sapiens, UniProt Q15661); experiment: Selectivity of chymase inhibitors against tryptase; conditions: ratio of Ki enzyme/Ki chymase
Experimental: (§1) As provided in Table 1, hereinabove in Example 2, selectivity was tested by measuring the inhibitory activity of ef-rs-03-075 and analogs against other serine proteases, including thrombin, trypsin, and tryrptase.

human chymase = molecular target: T1, human chymase (Homo sapiens, UniProt P23946); experiment: Inhibition of chymase (Ki; Lineweaver-Burk double reciprocal plots)
T1 construct: In its active form within the secretory granules of mast cells, human chymase contains 226 amino acid residues
T1 sequence (P23946 22-247): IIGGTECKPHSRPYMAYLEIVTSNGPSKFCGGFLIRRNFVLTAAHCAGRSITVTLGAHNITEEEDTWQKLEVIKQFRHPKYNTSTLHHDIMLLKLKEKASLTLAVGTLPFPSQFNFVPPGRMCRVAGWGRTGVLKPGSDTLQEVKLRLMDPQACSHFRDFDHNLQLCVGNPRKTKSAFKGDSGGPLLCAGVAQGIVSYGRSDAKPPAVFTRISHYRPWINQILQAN

DPPIV = DPPIV (Homo sapiens, UniProt P27487); experiment: Selectivity of chymase inhibitors against DPPIV; conditions: ratio of Ki enzyme/Ki chymase
Thrombin = Thrombin (Homo sapiens, UniProt P00734); experiment: Selectivity of chymase inhibitors against thrombin; conditions: ratio of Ki enzyme/Ki chymase
Experimental: as §1

Trypsin = experiment: Selectivity of chymase inhibitors against trypsin; conditions: ratio of Ki enzyme/Ki chymase
Experimental: as §1

Sequence of Tryptase (Q15661 31-275): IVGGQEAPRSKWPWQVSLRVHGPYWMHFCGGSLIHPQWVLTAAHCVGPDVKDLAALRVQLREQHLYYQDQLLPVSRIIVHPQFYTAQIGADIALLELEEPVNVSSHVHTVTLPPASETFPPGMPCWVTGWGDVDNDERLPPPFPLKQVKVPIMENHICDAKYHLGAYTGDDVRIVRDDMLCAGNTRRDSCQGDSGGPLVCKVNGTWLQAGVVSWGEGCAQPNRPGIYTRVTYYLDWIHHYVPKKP
Sequence of DPPIV (P27487 whole entry, species assumed): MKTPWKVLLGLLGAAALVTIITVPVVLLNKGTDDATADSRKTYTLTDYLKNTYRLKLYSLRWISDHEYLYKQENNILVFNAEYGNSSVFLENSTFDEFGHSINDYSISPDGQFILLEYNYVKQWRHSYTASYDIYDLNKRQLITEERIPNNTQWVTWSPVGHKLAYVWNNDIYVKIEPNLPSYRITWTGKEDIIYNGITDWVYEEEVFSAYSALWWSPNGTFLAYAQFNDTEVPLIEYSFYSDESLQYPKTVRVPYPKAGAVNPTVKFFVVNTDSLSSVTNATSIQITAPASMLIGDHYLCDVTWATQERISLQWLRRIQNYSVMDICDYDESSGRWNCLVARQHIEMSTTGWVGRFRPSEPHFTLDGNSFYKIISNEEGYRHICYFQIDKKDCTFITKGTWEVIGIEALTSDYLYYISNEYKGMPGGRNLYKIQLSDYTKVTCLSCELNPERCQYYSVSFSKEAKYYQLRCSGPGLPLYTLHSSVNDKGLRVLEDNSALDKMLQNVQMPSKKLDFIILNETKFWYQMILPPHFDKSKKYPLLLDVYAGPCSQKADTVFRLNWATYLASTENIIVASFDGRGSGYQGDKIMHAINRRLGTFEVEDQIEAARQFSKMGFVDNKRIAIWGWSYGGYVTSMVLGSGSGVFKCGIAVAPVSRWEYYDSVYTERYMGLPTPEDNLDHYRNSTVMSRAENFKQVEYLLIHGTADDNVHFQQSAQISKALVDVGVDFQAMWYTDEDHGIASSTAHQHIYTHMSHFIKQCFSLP

Row | Selectivity of chymase inhibitors: Tryptase (Tryptase) | Ki (human chymase; read-out: Chymase Ki) [nM] | Selectivity of chymase inhibitors: DPPIV (DPPIV) | Selectivity of chymase inhibitors: Thrombin (Thrombin) | Selectivity of chymase inhibitors: Trypsin (Trypsin) | inhibitory mechanism (human chymase; double reciprocal plot of substrate concentration vs. reaction velocity, various inhibitor concentrations (FIG. 4)) | Ki (human chymase; value given in the description text as 'high affinity', read-out: affinity) [nM] | SMILES
1 | >260 | 1580 ± 130 | >100 | >200 | – | – | – | O=S(=O)(/C=C/c1cccc(Br)c1)N(Cc1ccccc1)c1cccc(Cl)c1 [ef-rs-03-015-P2]
2 | >275 | 1320 ± 280 | >100 | >200 | – | – | – | O=S(=O)(/C=C/c1cccc(Cl)c1)N(Cc1ccccc1)c1cccc(Cl)c1 [ef-rs-03-019-P4]
3 | >240 | 1570 ± 390 | 34 | >60 | – | – | – | O=S(=O)(/C=C/c1cccc(Cl)c1)N(Cc1ccsc1)c1cccc(Cl)c1 [ef-rs-03-038-P1]
4 | >310 | 1340 ± 390 | 17 | >60 | – | – | – | O=S(=O)(/C=C/c1cccc(Br)c1)N(Cc1ccsc1)c1cccc(Cl)c1 [ef-rs-03-039-P1]
5 | >410 | 959 ± 42 | 37 | >320 | >110 | competitive inhibition | 544 | O=S(=O)(/C=C/c1cccc(Cl)c1)N(Cc1cccc(Cl)c1)c1cccc(Cl)c1 [ef-rs-03-075, (E)-N-(3-chlorobenzyl)-N,2-bis(3-chlorophenyl)ethenesulfonamide]
6 | >350 | 1110 ± 220 | 170 | 13 | – | – | – | Cc1cccc(CN(c2cccc(Cl)c2)S(=O)(=O)/C=C/c2cccc(Cl)c2)c1 [ef-rs-08-049]
7 | >110 | 903 ± 150 | 16 | 70 | – | – | – | O=S(=O)(/C=C/c1cccc(Cl)c1)N(Cc1ccc(Cl)c(Cl)c1)c1cccc(Cl)c1 [ef-rs-08-051]
8 | >100 | 978 ± 87 | 10 | >75 | – | – | – | O=S(=O)(/C=C/c1cccc(Cl)c1)N(Cc1cccc(Cl)c1)c1cccc(OCc2cccc(Cl)c2)c1 [ef-rs-08-052]
9 | >310 | 1260 ± 200 | 80 | 20 | – | – | – | O=S(=O)(/C=C/c1cccc(Cl)c1)N(Cc1ccc(Cl)cc1)c1cccc(Cl)c1 [ef-rs-08-056]
10 | >80 | 1190 ± 120 | 70 | >50 | – | – | – | O=S(=O)(/C=C/c1cccc(Cl)c1)N(Cc1cccc(F)c1)c1cccc(Cl)c1 [ef-rs-08-057]

Row | SMILES | Selectivity of chymase inhibitors: Tryptase (Tryptase) | Ki (human chymase; read-out: Chymase Ki) [nM] | Selectivity of chymase inhibitors: DPPIV (DPPIV) | Selectivity of chymase inhibitors: Thrombin (Thrombin) | Selectivity of chymase inhibitors: Trypsin (Trypsin) | inhibitory mechanism (human chymase; double reciprocal plot of substrate concentration vs. reaction velocity, various inhibitor concentrations (FIG. 4)) | Ki (human chymase; value given in the description text as 'high affinity', read-out: affinity) [nM]
11 | O=S(=O)(/C=C/c1cccc(Cl)c1)N(Cc1cccc(Br)c1)c1cccc(Cl)c1 [ef-rs-08-050] | >320 | 1220 ± 190 | 40 | 45 | – | – | –
